Experimental data reported in US7429660B2, “ATM inhibitors” (Kudos Pharmaceuticals Limited, priority 2003, dated 2008).

Target: T1, ATM protein immunoprecipitated from HeLa cell nuclear extract (Homo sapiens, UniProt Q13315)
T1 construct: ATM protein was immunoprecipitated from HeLa cell nuclear extract; endogenous in cells; host or cells: HeLa cell nuclear extract (immunoprecipitated with rabbit polyclonal anti-ATM antiserum)
Test: In vitro ATM inhibition assay (phosphorylation of GSTp53N66 on serine 15, chemiluminescent detection); note: tested normally from 100 µM down to 0.1 nM
Assay type: biochemical
Settings: read-out: IC50 values (the concentration at which 50% of the enzyme activity is inhibited), ATM inhibition
Method in brief: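 Immunoprecipitated HeLa nuclear ATM (C-terminal anti-sera) with GSTp53N66 substrate in Hepes pH 7.4 buffer with MgCl2/MnCl2; inhibitor preincubated 10 min at 37 °C, then Na-ATP added, 1 h at 37 °C.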

T1 sequence (Q13315 whole entry): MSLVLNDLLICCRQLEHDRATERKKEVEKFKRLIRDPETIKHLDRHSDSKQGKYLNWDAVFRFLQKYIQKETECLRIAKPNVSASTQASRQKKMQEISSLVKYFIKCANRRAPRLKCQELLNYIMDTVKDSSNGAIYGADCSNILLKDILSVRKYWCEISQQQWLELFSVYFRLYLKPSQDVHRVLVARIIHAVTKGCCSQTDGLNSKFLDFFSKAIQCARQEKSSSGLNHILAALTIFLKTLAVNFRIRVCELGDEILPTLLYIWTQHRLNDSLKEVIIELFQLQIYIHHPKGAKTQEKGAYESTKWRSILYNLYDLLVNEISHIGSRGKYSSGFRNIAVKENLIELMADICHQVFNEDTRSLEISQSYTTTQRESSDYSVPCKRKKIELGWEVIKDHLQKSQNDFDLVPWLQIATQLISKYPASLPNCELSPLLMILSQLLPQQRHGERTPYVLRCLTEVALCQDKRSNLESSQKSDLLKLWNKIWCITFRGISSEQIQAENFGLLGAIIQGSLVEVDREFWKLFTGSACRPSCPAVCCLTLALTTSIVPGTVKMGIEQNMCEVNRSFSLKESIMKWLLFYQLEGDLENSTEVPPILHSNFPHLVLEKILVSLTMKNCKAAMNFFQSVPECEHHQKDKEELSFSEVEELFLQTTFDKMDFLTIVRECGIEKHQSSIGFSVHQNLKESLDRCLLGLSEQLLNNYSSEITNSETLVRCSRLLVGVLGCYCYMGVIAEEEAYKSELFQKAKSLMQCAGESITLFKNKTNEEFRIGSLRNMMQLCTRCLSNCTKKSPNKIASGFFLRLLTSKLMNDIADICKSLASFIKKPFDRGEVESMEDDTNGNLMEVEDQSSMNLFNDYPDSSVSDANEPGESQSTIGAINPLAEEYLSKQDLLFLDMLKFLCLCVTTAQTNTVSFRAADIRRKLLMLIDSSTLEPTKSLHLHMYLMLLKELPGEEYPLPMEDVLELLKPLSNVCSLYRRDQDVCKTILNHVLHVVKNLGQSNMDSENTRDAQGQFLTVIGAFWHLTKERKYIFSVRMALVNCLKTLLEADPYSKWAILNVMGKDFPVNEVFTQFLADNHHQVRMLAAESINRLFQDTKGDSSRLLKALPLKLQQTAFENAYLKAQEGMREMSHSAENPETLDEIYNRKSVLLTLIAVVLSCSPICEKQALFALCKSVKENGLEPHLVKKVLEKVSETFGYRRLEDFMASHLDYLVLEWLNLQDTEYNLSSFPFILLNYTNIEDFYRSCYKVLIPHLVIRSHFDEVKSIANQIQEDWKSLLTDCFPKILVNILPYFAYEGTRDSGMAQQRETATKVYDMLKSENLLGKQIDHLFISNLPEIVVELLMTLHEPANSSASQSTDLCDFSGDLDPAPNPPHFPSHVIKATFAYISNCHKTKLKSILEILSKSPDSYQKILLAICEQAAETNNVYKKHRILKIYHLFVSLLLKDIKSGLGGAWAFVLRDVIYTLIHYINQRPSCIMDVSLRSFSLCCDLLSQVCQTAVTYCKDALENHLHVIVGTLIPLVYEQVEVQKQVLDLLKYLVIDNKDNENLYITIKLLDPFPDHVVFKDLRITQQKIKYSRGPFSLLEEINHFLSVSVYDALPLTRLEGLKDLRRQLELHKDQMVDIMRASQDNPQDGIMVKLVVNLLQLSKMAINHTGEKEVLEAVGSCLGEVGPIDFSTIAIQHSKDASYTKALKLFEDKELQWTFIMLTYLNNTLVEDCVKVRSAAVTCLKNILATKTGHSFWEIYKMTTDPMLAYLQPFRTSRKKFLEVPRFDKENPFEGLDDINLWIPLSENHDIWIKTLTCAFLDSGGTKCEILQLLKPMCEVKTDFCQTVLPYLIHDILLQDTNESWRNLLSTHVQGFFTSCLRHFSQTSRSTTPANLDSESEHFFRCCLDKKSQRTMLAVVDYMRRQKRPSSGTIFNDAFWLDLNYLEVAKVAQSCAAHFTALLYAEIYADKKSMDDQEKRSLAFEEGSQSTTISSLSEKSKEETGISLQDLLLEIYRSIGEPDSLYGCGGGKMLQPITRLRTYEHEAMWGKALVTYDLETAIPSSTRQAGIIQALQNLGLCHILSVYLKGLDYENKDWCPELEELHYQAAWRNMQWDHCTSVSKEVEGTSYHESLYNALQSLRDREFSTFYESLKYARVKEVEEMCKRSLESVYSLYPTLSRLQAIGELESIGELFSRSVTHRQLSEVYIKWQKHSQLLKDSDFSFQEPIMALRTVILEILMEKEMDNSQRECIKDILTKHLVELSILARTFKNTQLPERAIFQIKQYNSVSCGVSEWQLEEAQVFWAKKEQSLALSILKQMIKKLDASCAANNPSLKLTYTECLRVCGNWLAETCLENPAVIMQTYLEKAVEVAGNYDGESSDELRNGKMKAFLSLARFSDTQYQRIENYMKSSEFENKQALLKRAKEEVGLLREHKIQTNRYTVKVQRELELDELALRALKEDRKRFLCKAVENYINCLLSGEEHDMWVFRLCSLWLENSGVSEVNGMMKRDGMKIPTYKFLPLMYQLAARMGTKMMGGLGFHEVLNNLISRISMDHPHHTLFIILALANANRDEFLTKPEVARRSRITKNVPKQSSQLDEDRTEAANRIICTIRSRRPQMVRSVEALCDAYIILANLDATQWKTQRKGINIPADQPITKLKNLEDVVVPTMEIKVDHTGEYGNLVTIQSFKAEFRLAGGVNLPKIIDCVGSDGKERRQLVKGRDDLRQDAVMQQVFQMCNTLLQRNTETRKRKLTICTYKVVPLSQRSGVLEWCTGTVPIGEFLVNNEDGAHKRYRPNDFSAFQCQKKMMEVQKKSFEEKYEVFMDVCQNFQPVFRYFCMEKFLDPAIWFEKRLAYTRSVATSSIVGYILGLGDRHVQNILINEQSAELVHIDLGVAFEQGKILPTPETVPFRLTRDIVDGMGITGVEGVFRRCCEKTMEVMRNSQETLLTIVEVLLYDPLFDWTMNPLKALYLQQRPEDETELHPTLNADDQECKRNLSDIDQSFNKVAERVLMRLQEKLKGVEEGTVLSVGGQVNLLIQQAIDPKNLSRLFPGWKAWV

| SMILES | IC50 [nM] |
| --- | --- |
| O=C(COc1ccc2c(c1)Cc1cccc(-c3cc(=O)cc(N4CCOCC4)o3)c1S2)NCC1CCCO1 (stereo not shown) [Compound 497] | < 200 |
| O=C(COc1ccc2c(c1)Cc1cccc(-c3cc(=O)cc(N4CCOCC4)o3)c1S2)NC1CCC1 [Compound 499] | < 200 |
| CSCCNC(=O)COc1ccc2c(c1)Cc1cccc(-c3cc(=O)cc(N4CCOCC4)o3)c1S2 [Compound 500] | < 200 |
| O=C(COc1ccc2c(c1)Cc1cccc(-c3cc(=O)cc(N4CCOCC4)o3)c1S2)NC(CO)(CO)CO [Compound 505] | < 200 |
| NC(=O)C1CCN(C(=O)COc2ccc3c(c2)Cc2cccc(-c4cc(=O)cc(N5CCOCC5)o4)c2S3)CC1 [Compound 509] | < 200 |
| O=C(COc1ccc2c(c1)Cc1cccc(-c3cc(=O)cc(N4CCOCC4)o3)c1S2)N1CCSCC1 [Compound 510] | < 200 |
| O=C(COc1ccc2c(c1)Cc1cccc(-c3cc(=O)cc(N4CCOCC4)o3)c1S2)NC[C@@H]1CCCCC[C@@H]1O [Compound 513] | < 200 |
| CCN1CCN(C(=O)COc2ccc3c(c2)Cc2cccc(-c4cc(=O)cc(N5CCOCC5)o4)c2S3)CC1 [Compound 524] | < 200 |
| O=C(COc1ccc2c(c1)Cc1cccc(-c3cc(=O)cc(N4CCOCC4)o3)c1S2)N1CCNCC1 [Compound 528] | < 200 |
| O=C(COc1ccc2c(c1)Cc1cccc(-c3cc(=O)cc(N4CCOCC4)o3)c1S2)N1CCCCCC1 [Compound 532] | < 200 |
| CCCNCCOc1ccc2c(c1)Cc1cccc(-c3cc(=O)cc(N4CCOCC4)o3)c1S2 [Compound 537] | < 200 |

Second part, the compound after the results:

| IC50 [nM] | SMILES |
| --- | --- |
| < 200 | CCN1CCN(S(=O)(=O)c2ccc3c(c2)Cc2cccc(-c4cc(=O)cc(N5CCOCC5)o4)c2S3)CC1 [Compound 482] |
| < 200 | O=c1cc(-c2cccc3c2Sc2ccc(S(=O)(=O)NCCO)cc2C3)oc(N2CCOCC2)c1 [Compound 484] |
| < 200 | O=c1cc(-c2cccc3c2Sc2ccc(S(=O)(=O)N4CCCCC4)cc2C3)oc(N2CCOCC2)c1 [Compound 485] |
| < 200 | CCC(C)(C)NS(=O)(=O)c1ccc2c(c1)Cc1cccc(-c3cc(=O)cc(N4CCOCC4)o3)c1S2 [Compound 488] |
| < 200 | O=c1cc(-c2cccc3c2Sc2ccc(S(=O)(=O)N4CCCNCC4)cc2C3)oc(N2CCOCC2)c1 [Compound 489] |
| < 200 | O=c1cc(-c2cccc3c2Sc2ccc(S(=O)(=O)N(CCO)CCO)cc2C3)oc(N2CCOCC2)c1 [Compound 490] |
| < 200 | O=C(COc1ccc2c(c1)Cc1cccc(-c3cc(=O)cc(N4CCOCC4)o3)c1S2)N1CCOCC1 [Compound 494] |
| < 200 | O=C(COc1ccc2c(c1)Cc1cccc(-c3cc(=O)cc(N4CCOCC4)o3)c1S2)NCC(F)(F)F [Compound 496] |
